Measurements reported in US20240270821A1, “GIP/GLP1/GCG TRI-RECEPTOR AGONISTS AND USES THEREOF” (priority 2023, published 2024).
Like-named read-outs stand apart in the source and are kept apart here. Starred links: 1 amine or outer side, 2 acyl side, 3 side chain; linkers in the order of their positions; H or OH if unused. Non-standard residues stand in square brackets, D forms with d. Groups on a side chain read outwards from the residue. *: point of attachment. C20 diacid = O=C(O)CCCCCCCCCCCCCCCCCCC(=O)*; C18 diacid = O=C(O)CCCCCCCCCCCCCCCCC(=O)*; γGlu = O=C(O)[C@H](CCC(=O)[*:2])N[*:1]; αMe4Pal = C[C@](N)(Cc1ccncc1)C(=O)O; 4Pal = N[C@@H](Cc1ccncc1)C(=O)O; αMeL = CC(C)C[C@](C)(N)C(=O)O; Orn = NCCC[C@H](N)C(=O)O; AEEA = NCCOCCOCC(=O)O; Aib = CC(C)(N)C(=O)O

How the values were obtained:
Assay type in all cases: cell-based
[1] = biological target: hGcgR (Homo sapiens, UniProt P47871); assay: Functional cAMP activation in the presence of 0.1% casein (no HSA);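 also: intracellular cAMP rise after 30 min at 37 °C, read by HTRF against a cAMP standard curve, scaled from buffer only (0%) to maximal control ligand response (100%)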
[2] = biological target: T1, hGIPR (Homo sapiens, UniProt P48546); assay: as above;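 also: intracellular cAMP rise after 30 min at 37 °C read by HTRF against a standard curve, scaled between buffer alone (0%) and top control ligand concentration (100%), four-parameter fit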
T1 sequence (P48546 22-466): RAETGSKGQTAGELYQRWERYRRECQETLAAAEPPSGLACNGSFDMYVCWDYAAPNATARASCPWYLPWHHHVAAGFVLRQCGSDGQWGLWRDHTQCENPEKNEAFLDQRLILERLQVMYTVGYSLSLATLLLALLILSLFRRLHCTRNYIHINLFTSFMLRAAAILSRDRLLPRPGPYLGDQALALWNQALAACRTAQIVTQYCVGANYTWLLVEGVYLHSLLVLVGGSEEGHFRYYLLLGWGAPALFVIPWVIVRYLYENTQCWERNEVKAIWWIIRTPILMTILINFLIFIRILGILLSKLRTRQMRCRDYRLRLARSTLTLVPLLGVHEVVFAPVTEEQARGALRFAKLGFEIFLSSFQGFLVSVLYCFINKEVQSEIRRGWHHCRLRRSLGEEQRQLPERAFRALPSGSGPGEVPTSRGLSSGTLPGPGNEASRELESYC

[3] = biological target: human GcgR (Homo sapiens, UniProt P47871); assay: Functional cAMP activity in the presence of 1% HSA
[4] = biological target: human GLP1-R (Homo sapiens, UniProt P43220); assay: GLP1-R internalization assay in HEK293 cells; conditions: for Internalization % TOP: normalized to maximum concentration of GLP-1 (100%)
[5] = biological target: T1, hGIPR; assay: Functional cAMP activity in the presence of 1% HSA
[6] = biological target: T2, hGLP-1R (Homo sapiens, UniProt P43220); assay: Functional cAMP activation in the presence of 0.1% casein (no HSA);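 also: intracellular cAMP rise after 30 min at 37 °C read by HTRF, normalized between buffer only (0%) and maximal control ligand (100%), four-parameter variable-slope fit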
[7] = biological target: T2, hGLP-1R; assay: Functional cAMP activity in the presence of 1% HSA
[8] = in the presence of 0.1% casein (no HSA), geometric mean, read-out: Relative cAMP EC50, hGcgR
[9] = in the presence of 0.1% casein (no HSA), geometric mean, read-out: Relative cAMP EC50, hGIPR
[10] = HEK293 cells expressing SNAP-GLP-1R, read-out: GLP1R Internalization EC50
[11] = in the presence of 0.1% casein (no HSA), geometric mean, read-out: Relative cAMP EC50, hGLP-1R
[12] = read-out: cAMP Rel EC50, hGLP-1R

Chain of human GLP1-R (P43220 24-463): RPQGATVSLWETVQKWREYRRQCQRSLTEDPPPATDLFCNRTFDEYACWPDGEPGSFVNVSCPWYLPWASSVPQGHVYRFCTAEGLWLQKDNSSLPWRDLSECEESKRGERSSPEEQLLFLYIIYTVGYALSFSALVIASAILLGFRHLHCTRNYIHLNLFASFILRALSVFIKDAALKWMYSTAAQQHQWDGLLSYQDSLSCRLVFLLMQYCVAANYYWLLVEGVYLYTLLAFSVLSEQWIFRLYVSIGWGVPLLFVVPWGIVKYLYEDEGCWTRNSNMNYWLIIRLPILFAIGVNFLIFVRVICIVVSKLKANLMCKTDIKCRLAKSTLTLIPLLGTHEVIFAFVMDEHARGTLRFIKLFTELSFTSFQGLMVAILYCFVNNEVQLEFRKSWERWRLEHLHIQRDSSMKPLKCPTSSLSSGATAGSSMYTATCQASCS
T2 sequence (P43220 24-463): as above
Chain of hGcgR (P47871 26-477): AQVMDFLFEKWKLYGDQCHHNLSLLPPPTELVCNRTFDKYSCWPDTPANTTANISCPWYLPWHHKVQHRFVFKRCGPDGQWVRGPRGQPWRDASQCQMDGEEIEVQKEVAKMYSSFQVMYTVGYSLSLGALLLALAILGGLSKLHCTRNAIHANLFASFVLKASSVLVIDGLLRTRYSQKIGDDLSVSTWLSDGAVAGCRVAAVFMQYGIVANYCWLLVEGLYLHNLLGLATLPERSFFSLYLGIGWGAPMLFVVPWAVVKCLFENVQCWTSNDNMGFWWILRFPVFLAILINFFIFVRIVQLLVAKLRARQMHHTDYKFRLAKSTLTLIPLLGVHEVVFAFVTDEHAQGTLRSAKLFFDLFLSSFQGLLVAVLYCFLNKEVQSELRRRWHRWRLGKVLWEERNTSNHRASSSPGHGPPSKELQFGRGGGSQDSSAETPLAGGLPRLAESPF
Chain of human GcgR (P47871 26-477): as above

| Compound | EC50 [1, 8] [nM] | EC50 [2, 9] [nM] | EC50 ([3]; read-out: cAMP Rel EC50, hGcgR) [nM] | EC50 [4, 10] [nM] | Internalization % TOP [4] [%] | EC50 ([5]; read-out: cAMP Rel EC50, hGIPR) [nM] | EC50 [6, 11] [nM] | EC50 [7, 12] [nM] | EC50 [1] [nM] | EC50 [2] [nM] | EC50 [3] [nM] | EC50 [4] [nM] | EC50 [5] [nM] | EC50 [6] [nM] | EC50 [7] [nM] |
| --- | --- | --- | --- | --- | --- | --- | --- | --- | --- | --- | --- | --- | --- | --- | --- |
| CC[C@H](C)[C@H](NC(=O)[C@H](Cc1ccccc1)NC(=O)[C@H](C)NC(=O)C(C)(C)NC(=O)[C@H](CCC(N)=O)NC(=O)[C@H](C)NC(=O)[C@H](CCCCNC(=O)COCCOCCNC(=O)COCCOCCNC(=O)CC[C@H](NC(=O)CCCCCCCCCCCCCCCCC(=O)O)C(=O)O)NC(=O)[C@H](CCCCN)NC(=O)[C@H](CC(=O)O)NC(=O)[C@H](CC(C)C)NC(=O)[C@](C)(CC(C)C)NC(=O)[C@H](CCCN)NC(=O)[C@H](CO)NC(=O)[C@H](Cc1ccccc1)NC(=O)[C@H](CC(=O)O)NC(=O)[C@H](CO)NC(=O)[C@@H](NC(=O)[C@H](Cc1ccccc1)NC(=O)[C@@H](NC(=O)CNC(=O)[C@H](CCC(N)=O)NC(=O)C(C)(C)NC(=O)[C@@H](N)Cc1ccc(O)cc1)[C@@H](C)O)[C@@H](C)O)C(=O)N[C@@H](CCC(=O)O)C(=O)N[C@@H](Cc1ccc(O)cc1)C(=O)N[C@@H](CC(C)C)C(=O)N[C@@H](CC(C)C)C(=O)N[C@@H](CCC(=O)O)C(=O)NC(C)(C)C(=O)NCC(=O)N[C@@H](CCC(=O)O)C(=O)N[C@@H](CO)C(=O)N[C@@H](CO)C(=O)NCC(=O)N[C@@H](C)C(=O)N1CCC[C@H]1C(=O)N1CCC[C@H]1C(=O)N1CCC[C@H]1C(=O)N[C@@H](CO)C(=O)NCC(=O)N[C@@H](CCC(=O)O)C(N)=O [Example 185] | 3.5 | 0.123 | 504 | 144 | 43.7 | 21.1 | 5.46 | 502 | – | – | – | – | – | – | – |
| H-Y[Aib]QGTFTSDFS[Orn][αMeL]LDKK([AEEA-AEEA-γGlu-C18 diacid])AQ[Aib]AFIEYLLE[dA]GPSSGHPPPSG[4Pal]-NH2 [Example 256] | 5.71 | 0.176 | 625 | 87.8 | 43.5 | 17.4 | 2.87 | 235 | – | – | – | – | – | – | – |
| H-Y[Aib]QGTFTSDFS[Orn][αMeL]LDKK([AEEA-γGlu-C18 diacid])AQ[Aib]AFIEYLLEGGPSSGAPPPGGS[AEEA]-NH2 [Example 66] | 3.71 | 0.219 | 415 | 42.1 | 46.3 | 29.9 | 3.86 | 329 | – | – | – | – | – | – | – |
| H-Y[Aib]QGTFTSDFSR[αMeL]LDKK([AEEA-γGlu-C18 diacid])AQ[αMe4Pal]AFIEYLIE[Aib]GESSGAPPPSGE-NH2 [Example 231] | – | – | – | – | 27.7 | – | – | – | 2.12 | 0.119 | 443 | 36.1 | 27.4 | 1.3 | 223 |
| H-Y[Aib]QGTFTSDFSK[αMeL]LDKK([AEEA-γGlu-C20 diacid])AQ[Aib]AFIEYLLAGGPSSGEPPPSEG[AEEA]-NH2 [Example 32] | 11.6 | 0.28 | 1440 | 86.1 | 64.4 | 66.1 | 2.55 | 422 | – | – | – | – | – | – | – |
| H-Y[Aib]QGTFTSD[4Pal]SK[αMeL]LDKK([AEEA-γGlu-C18 diacid])AQ[Aib]AFIEYLIE[Aib]GESSGEPPPSGS-NH2 [Example 282] | 6.98 | 0.163 | 1830 | 28.7 | 71.9 | 22.1 | 1.09 | 217 | – | – | – | – | – | – | – |
| H-Y[Aib]QGTFTSDFS[Orn][αMeL]LDKK([AEEA-γGlu-C18 diacid])AQ[Aib]AFIEYLLAGGPSSGAPPPSGS-NH2 [Example 95] | 8.41 | 0.116 | 1130 | 37.8 | 49.3 | 18.2 | 1.95 | 380 | – | – | – | – | – | – | – |
| CC[C@H](C)[C@H](NC(=O)[C@H](Cc1ccccc1)NC(=O)[C@H](C)NC(=O)C(C)(C)NC(=O)[C@H](CCC(N)=O)NC(=O)[C@H](C)NC(=O)[C@H](CCCCNC(=O)COCCOCCNC(=O)COCCOCCNC(=O)CC[C@H](NC(=O)CCCCCCCCCCCCCCCCCCC(=O)O)C(=O)O)NC(=O)[C@H](CCCCN)NC(=O)[C@H](CC(=O)O)NC(=O)[C@H](CC(C)C)NC(=O)[C@](C)(CC(C)C)NC(=O)[C@H](CCCCN)NC(=O)[C@H](CO)NC(=O)[C@H](Cc1ccccc1)NC(=O)[C@H](CC(=O)O)NC(=O)[C@H](CO)NC(=O)[C@@H](NC(=O)[C@H](Cc1ccccc1)NC(=O)[C@@H](NC(=O)CNC(=O)[C@H](CCC(N)=O)NC(=O)C(C)(C)NC(=O)[C@@H](N)Cc1ccc(O)cc1)[C@@H](C)O)[C@@H](C)O)C(=O)N[C@@H](CCC(=O)O)C(=O)N[C@@H](Cc1ccc(O)cc1)C(=O)N[C@@H](CC(C)C)C(=O)N[C@@H](CC(C)C)C(=O)N[C@@H](CCC(=O)O)C(=O)NC(C)(C)C(=O)NCC(=O)N1CCC[C@H]1C(=O)N[C@@H](CO)C(=O)N[C@@H](CO)C(=O)NCC(=O)N[C@@H](C)C(=O)N1CCC[C@H]1C(=O)N1CCC[C@H]1C(=O)N1CCC[C@H]1C(=O)NCC(=O)N[C@@H](CCC(=O)O)C(=O)NCC(N)=O [Example 55] | – | – | – | – | 70.7 | – | – | – | 5.2 | 0.0856 | 960 | 79.5 | 27.8 | 1.96 | 479 |
| H-Y[Aib]QGTFTSDFSR[αMeL]LDKK([AEEA-AEEA-γGlu-C18 diacid])AQ[Aib]AFIEYLLE[Aib]GPSSGAPPPSGS-NH2 [Example 80] | – | – | – | – | 48.2 | – | – | – | 7.44 | 0.0593 | 1190 | 35.8 | 10.1 | 2.55 | 627 |
| H-Y[Aib]QGTFTSDFSK[αMeL]LDKK([AEEA-γGlu-C18 diacid])AQ[Aib]AFIEYLLE[Aib]GPSSGEPPPSEG-NH2 [Example 46] | 1.53 | 0.0947 | 393 | 41 | 58.1 | 19.6 | 4.04 | 601 | – | – | – | – | – | – | – |
| H-Y[Aib]QGTFTSDFS[Orn][αMeL]LDKK([AEEA-γGlu-C18 diacid])AQ[Aib]AFIEYLLAGGPSSGAPPPSGD-NH2 [Example 85] | 7.63 | 0.157 | 1270 | 326 | 48.3 | 22.1 | 2.73 | 387 | – | – | – | – | – | – | – |
| H-Y[Aib]QGTFTSDFS[Orn][αMeL]LDKK([AEEA-γGlu-C18 diacid])AQ[Aib]AFIEYLLE[Aib]GPSSGAPPPSGE-NH2 [Example 110] | 2.45 | 0.102 | 627 | 28.3 | 42.5 | 19.8 | 2.99 | 821 | – | – | – | – | – | – | – |
| H-Y[Aib]QGTFTSDFSK[αMeL]LDKK([AEEA-γGlu-C20 diacid])AQ[Aib]AFIEYLLE[Aib]GPSSGAPPPSGS-NH2 [Example 45] | 2.08 | 0.112 | 879 | 52.6 | 62.1 | 33.4 | 1.52 | 493 | – | – | – | – | – | – | – |
| H-Y[Aib]QGTFTSDFS[Orn][αMeL]LDKK([AEEA-γGlu-C18 diacid])AQ[Aib]AFIEYLLAGGPSSGAPPPSGE-NH2 [Example 86] | 7.23 | 0.145 | 1130 | 57.8 | 52.5 | 19.6 | 2.43 | 421 | – | – | – | – | – | – | – |
| H-Y[Aib]QGTFTSDFS[Orn][αMeL]LDKK([AEEA-γGlu-C18 diacid])AQ[Aib]AFIEYLLE[Aib]GPSSGAPPPSGS-NH2 [Example 74] | 2.53 | 0.0708 | 709 | 72.7 | 53.3 | 15.9 | 3.32 | 627 | – | – | – | – | – | – | – |
| H-Y[Aib]QGTFTSD[4Pal]S[Orn][αMeL]LDKK([AEEA-γGlu-C18 diacid])AQ[αMe4Pal]AFIEYLIE[Aib]GESSGAPPPSGE-NH2 [Example 222] | 2.33 | 0.228 | 440 | 34.6 | 52.4 | 52.5 | 3.64 | 753 | – | – | – | – | – | – | – |
| H-Y[Aib]QGTFTSDFS[Orn][αMeL]LDKK([AEEA-AEEA-γGlu-C18 diacid])AQ[Aib]AFIEYLLE[Aib]G[4Pal]SSGAPPPSGS-NH2 [Example 183] | 3.83 | 0.0759 | 504 | 100 | 45.4 | 13.7 | 5.03 | 295 | – | – | – | – | – | – | – |
